{
  "source": "patent US20250164502A1",
  "about": "“Mutant Human Nax Proteins and Screening Methods” (Genentech, Inc., priority 2021, published 2025)",
  "type_in_all_cases": "cell-based",
  "key": {"human NaX-QTT [1]": {"target": "T1, human NaX-QTT (Homo sapiens, UniProt Q01118, F724Q/I1189T/I1492T)", "T1 construct": "expressed in transfected cells; host or cells: Xenopus laevis oocytes injected with in vitro transcribed capped RNA", "T1 sequence (Q01118 whole entry F724Q/I1189T/I1492T)": "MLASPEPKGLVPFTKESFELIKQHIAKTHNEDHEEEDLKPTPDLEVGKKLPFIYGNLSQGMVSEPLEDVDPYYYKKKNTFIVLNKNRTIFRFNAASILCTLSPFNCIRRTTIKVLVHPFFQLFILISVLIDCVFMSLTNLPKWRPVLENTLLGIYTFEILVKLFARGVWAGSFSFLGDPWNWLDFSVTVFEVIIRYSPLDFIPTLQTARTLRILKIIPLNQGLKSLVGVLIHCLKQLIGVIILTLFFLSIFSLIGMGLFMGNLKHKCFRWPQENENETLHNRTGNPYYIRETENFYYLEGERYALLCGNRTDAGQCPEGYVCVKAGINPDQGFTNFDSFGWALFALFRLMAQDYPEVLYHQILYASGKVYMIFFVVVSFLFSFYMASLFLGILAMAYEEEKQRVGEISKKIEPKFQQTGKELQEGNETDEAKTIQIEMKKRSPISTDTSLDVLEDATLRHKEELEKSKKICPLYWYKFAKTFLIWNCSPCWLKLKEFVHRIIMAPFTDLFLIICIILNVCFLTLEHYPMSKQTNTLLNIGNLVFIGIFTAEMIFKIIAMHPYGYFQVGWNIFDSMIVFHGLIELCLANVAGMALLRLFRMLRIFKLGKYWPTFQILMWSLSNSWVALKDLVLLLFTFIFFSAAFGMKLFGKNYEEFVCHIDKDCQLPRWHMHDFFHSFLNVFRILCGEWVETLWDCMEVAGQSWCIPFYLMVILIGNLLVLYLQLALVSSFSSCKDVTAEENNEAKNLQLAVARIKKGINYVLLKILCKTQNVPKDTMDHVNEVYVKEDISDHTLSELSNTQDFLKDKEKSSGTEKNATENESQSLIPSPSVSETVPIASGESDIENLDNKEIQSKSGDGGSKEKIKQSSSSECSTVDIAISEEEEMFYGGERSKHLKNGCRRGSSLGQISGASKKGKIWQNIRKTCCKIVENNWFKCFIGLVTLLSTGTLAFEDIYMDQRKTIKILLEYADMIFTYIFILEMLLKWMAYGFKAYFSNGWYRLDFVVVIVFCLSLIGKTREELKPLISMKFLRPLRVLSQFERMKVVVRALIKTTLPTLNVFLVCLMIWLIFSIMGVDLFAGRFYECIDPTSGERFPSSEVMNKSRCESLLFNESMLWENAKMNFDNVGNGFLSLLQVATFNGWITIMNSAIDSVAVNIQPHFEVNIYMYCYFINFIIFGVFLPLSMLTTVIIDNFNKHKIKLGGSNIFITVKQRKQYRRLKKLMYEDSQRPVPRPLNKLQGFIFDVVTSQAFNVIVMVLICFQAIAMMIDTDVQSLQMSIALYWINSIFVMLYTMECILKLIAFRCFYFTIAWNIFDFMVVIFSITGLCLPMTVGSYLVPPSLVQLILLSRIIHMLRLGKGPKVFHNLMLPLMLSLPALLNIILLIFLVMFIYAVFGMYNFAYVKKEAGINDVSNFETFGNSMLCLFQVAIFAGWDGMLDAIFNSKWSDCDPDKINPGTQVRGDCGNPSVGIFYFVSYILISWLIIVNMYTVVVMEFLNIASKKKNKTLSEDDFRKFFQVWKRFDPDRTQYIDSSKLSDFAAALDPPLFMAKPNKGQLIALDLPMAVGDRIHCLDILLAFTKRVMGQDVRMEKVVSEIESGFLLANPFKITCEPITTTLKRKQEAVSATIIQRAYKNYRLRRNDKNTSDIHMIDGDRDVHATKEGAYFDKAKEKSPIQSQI", "assay": "Whole-cell patch clamp of HEK293T cells expressing NaX-QTT, effect of extracellular Ca^2+", "protocol": "(§1) FIGS. 5A-C show pharmacology of the human NaX-QTT channel. FIG. 5A, left and middle panels, show representative I-V currents from HEK293 cells expressing human NaX-QTT with indicated extracellular monovalent cations with or without indicated amounts of CaCl2 in the extracellular solution. Voltage ramp from −80 to +80 mV was applied.\nHEK293T cells expressing NaX- or NaX-QTT-eGFP-2×FLAG were seeded on glass cover slips an hour before whole-cell patch-clamping experiments. For a more physiological condition (FIGS. 4D and 7B), the extracellular solution contained 150 mM NaCl, 5 mM KCl, 0.5 mM CaCl2, 1.2 mM MgCl2, 10 mM HEPES, and 13 mM D-(+)-glucose (pH 7.4) with NaOH, ˜320 mOsm/L, and the intracellular solution contained 140 mM CsCl, 10 mM CsF, 5 mM EGTA, 10 mM HEPES, and 2 mM Na2ATP (pH 7.2) with CsOH, ˜304 mOsm/L. To determine if NaX-QTT was cation-permeable, we first substituted all extracellular cations with NMDG^+ (FIG. 4E). Extracellular solution contained 150 mM NMDG and 10 mM HEPES (D-(+)-glucose was added accordingly to achieve osmolarity ˜325 mOsm/L and pH was adjusted to 7.4 with hydrochloric acid). To determine if NaX-QTT was anion-permeable, we substituted all Cl^− ions in both intra- and extracellular solutions with the large anion methanesulfonate (MS^−) (FIG. 15C). The extracellular solution contained 150 mM NaMS and 10 mM HEPES (D-(+)-glucose was added accordingly to achieve osmolarity ˜325 mOsm/L, and pH was adjusted to 7.4 with NaOH). […]\nFor data analysis, raw current traces were typically filtered using 8-pole Bessel low-pass filter at 500-800 Hz. […] For ion-selectivity experiments performed with Na^+ intracellular solution (FIGS. 4E and 5A), liquid junction potential (LJP) was measured with reference to the Na^+ intracellular solution and corrected after recording. Relative ion permeabilities (PNa/PX) were calculated using the equation PX/PNa=[Na^+]IC exp(ErevF/RT)/[X^+]EC (X=Na, K, Li or Cs), where F is Faraday's constant, R is the gas constant, […], and Erevs were measured from the −80- to +80-m V ramp (corrected for LJP)."}, "human NaX-QTT [2]": {"target": "T1, human NaX-QTT", "assay": "Two-electrode voltage-clamp of Xenopus laevis oocytes expressing human NaX-QTT with blockers or multivalent cations", "protocol": "as §1\nOocytes were prepared as previously described^68. Healthy-looking stage V-VI oocytes were injected with 2.5-40 ng of RNA (in 5-41 nL) using a Nanoliter 2010 injector (World Precision Instruments). When excluding one or more construct, an equivalent volume of nuclease-free water was added to maintain a constant RNA concentration across different construct combinations. Injected oocytes were kept at 18° C., 140 rpm, in ND96 supplemented with 50 μg/mL gentamicin and 50 μg/mL tetracycline (in mM: 96 NaCl, 2 KCl, 1 MgCl2, 1.8 CaCl2), 2.5 sodium pyruvate, 0.5 theophylline, 5 HEPES; pH 7.4 with NaOH) for two to five days. Two-electrode voltage-clamp measurements were performed at room temperature using a Warner OC-725C Oocyte Clamp amplifier (Warner Instrument Corp, USA) and under constant perfusion with ND96 solution (in mM: 96 NaCl, 2 KCl, 1 MgCl2, 1.8 CaCl2, 5 HEPES; pH 7.4 with NaOH). For ion selectivity experiments, external solutions contained 115 mM of test cations as chloride salts, 1.2 mM CaCl2, 2 mM MgCl2, 5 mM HEPES (pH 7.4 with the corresponding hydroxide). Data acquisition was performed using a Digidata 1550 digitizer (Molecular devices; sampled at 10 kHz) and pCLAMP 10 software (Molecular Devices). Microelectrodes from borosilicate glass capillaries (Harvard Apparatus) were prepared to have resistances around 0.2-1.0 MQ2 using a P-1000 Flaming/Brown Micropipette Puller System (Sutter Instrument) and backfilled with 3 M KCl. Aconitine and veratridine (Alomone Labs) were dissolved in DMSO to make 50 mM stocks, and were further diluted to 300 and 100 μM in ND96 for electrophysiological experiments. Other NaV activators (Alomone Labs; FIGS. 8A-D) were dissolved in water to make stock solutions. The voltage dependence of ion current was determined using a protocol consisting of steps from a holding potential of 0 mV to voltages ranging from +80 to −100 mV for 1 s in 20 mV increment."}, "human NaX": {"target": "T2, human NaX (Homo sapiens, UniProt Q01118)", "T2 construct": "expressed in transfected cells; host or cells: Xenopus laevis oocytes injected with in vitro transcribed capped RNA", "T2 sequence (Q01118 whole entry)": "as the sequence (Q01118 whole entry F724Q/I1189T/I1492T) above, with Q724F, T1189I, T1492I counted along it", "assay": "Two-electrode voltage-clamp of oocytes expressing human NaX with classical NaV channel activators", "conditions": "different voltage-step protocols in oocytes; wild-type human NaX", "description": "FIGS. 8A-D show functional evaluation of human NaX in Xenopus laevis oocytes. FIGS. 8A, left panel, and 8B, left panel, show representative currents from Xenopus laevis oocytes expressing human NaX with the indicated pharmacological modulator present in the extracellular solution. […] FIGS. 8C, left panel, and 8D, left panel, show representative currents from oocytes expressing human NaX with the indicated proteins co-expressed. FIG. 8C, right panel, show I-V plots with steps between +80 and −100 mV, in 20 mV increments, from a HP of 0 mV.\nOocytes were prepared as previously described^68. Healthy-looking stage V-VI oocytes were injected with 2.5-40 ng of RNA (in 5-41 nL) using a Nanoliter 2010 injector (World Precision Instruments). When excluding one or more construct, an equivalent volume of nuclease-free water was added to maintain a constant RNA concentration across different construct combinations. Injected oocytes were kept at 18° C., 140 rpm, in ND96 supplemented with 50 μg/mL gentamicin and 50 μg/mL tetracycline (in mM: 96 NaCl, 2 KCl, 1 MgCl2, 1.8 CaCl2), 2.5 sodium pyruvate, 0.5 theophylline, 5 HEPES; pH 7.4 with NaOH) for two to five days. […] The voltage dependence of ion current was determined using a protocol consisting of steps from a holding potential of 0 mV to voltages ranging from +80 to −100 mV for 1 s in 20 mV increment."}, "[3]": {"conditions": "1 mM, oocytes, step from 0 to +80 mV"}, "[4]": {"conditions": "at concentrations up to 300 μM, oocytes"}},
  "note": "Like-named read-outs stand apart in the source and are kept apart here.",
  "data": [
    {"smiles": "[Ca+2]", "note": "[Ca^2+]", "values": [
      {"measurement": "permeation through NaX-QTT", "setting": "human NaX-QTT [1]; HEK293T cells, extracellular CaCl2", "result": "does not permeate"},
      {"measurement": "potency of extracellular Ca^2+ block on NaX relative to traditional NaV channels", "setting": "human NaX-QTT [1]; NaX-QTT versus NaV channels", "result": "~10", "unit": "fold"},
      {"measurement": "inhibition of the outward Na^+ current", "setting": "human NaX-QTT [1]; extracellular Ca^2+ 1 mM, HEK293T cells, NaX-QTT, at 80 mV", "result": "~70", "unit": "%"}
    ]},
    {"smiles": "[Co+2]", "note": "[Co^2+]", "values": [
      {"measurement": "inhibition of NaX-QTT currents", "setting": "human NaX-QTT [2]; [3]", "result": "inhibited"}
    ]},
    {"smiles": "[Gd+3]", "note": "[Gd^3+]", "values": [
      {"measurement": "inhibition of NaX-QTT currents compared with Zn^2+ and Co^2+", "setting": "human NaX-QTT [2]; trivalent cation, oocytes", "result": "more potent"}
    ]},
    {"smiles": "[Zn+2]", "note": "[Zn^2+]", "values": [
      {"measurement": "inhibition of NaX-QTT currents", "setting": "human NaX-QTT [2]; [3]", "result": "inhibited"}
    ]},
    {"smiles": "CCN1C[C@]2(COC)[C@H](O)C[C@H](OC)[C@@]34[C@@H]5C[C@@]6(O)[C@H](OC(=O)c7ccccc7)[C@@H]5[C@@](OC(C)=O)([C@@H]([C@H](OC)[C@H]23)[C@@H]14)[C@@H](O)[C@@H]6OC", "note": "[aconitine]", "values": [
      {"measurement": "activation of human NaX-mediated currents", "setting": "human NaX", "result": "did not invoke any clear human NaX-mediated currents"}
    ]},
    {"smiles": "O=C(NCC1CCCCN1)c1cc(OCC(F)(F)F)ccc1OCC(F)(F)F", "note": "(stereo not shown) [flecainide]", "values": [
      {"measurement": "inhibition of NaX-QTT currents", "setting": "human NaX-QTT [2]; [4]", "result": "strong inhibitory effects were not observed"}
    ]},
    {"smiles": "CN(C)C(=O)C(CCN1CCC(O)(c2ccc(Cl)cc2)CC1)(c1ccccc1)c1ccccc1", "note": "[loperamide]", "values": [
      {"measurement": "inhibition of NaX-QTT currents", "setting": "human NaX-QTT [2]", "result": "equally potent inhibitors"}
    ]},
    {"smiles": "O=C1NC(=O)C(c2ccccc2)(c2ccccc2)N1", "note": "[phenytoin]", "values": [
      {"measurement": "inhibition of NaX-QTT currents", "setting": "human NaX-QTT [2]; [4]", "result": "strong inhibitory effects were not observed"}
    ]}
  ]
}
